Experimental data taken from patent publication US10507215B2, “Compounds for the treatment of addiction” (Amygdala Neurosciences, Inc., priority 2011, dated 2019).

Experiments:
Assay type in all cases: in vivo
Male SD rats [1] = assay: Rat nicotine self administration, acute treatment
Method: Male SD rats were trained to self administer i.v. nicotine (0.03 mg/kg/inj) daily (Monday to Friday) in standard operant chambers with retractable levers (MED Associates, Inc) as previously published (Levin et al., 2003; Levin et al., 2007). During the daily 45 min session, rats received 0.05 ml infusion of 0.03 mg/kg/infusion of nicotine every time the active lever was pressed. A cue light and tone turned on for 0.5 sec together with the activation of a pump that delivered the nicotine solution. Daily sessions were run for at least 10 days before the initiation of drug testing. Solutions of compounds of Example 2 and Example 5 were prepared fresh daily in Formulation 2B: 25% PEG400/5% Vit E TPGS/1% SLS/69% water with 0.5% Methocel) for oral dosing. Compound of Example 2 doses were administered in a counterbalanced design for testing 1 hr before each nicotine session. Every rat received all drug doses and vehicle in a randomly assigned order. The oral drug administrations were made twice per week.
Compound of Example 5 was tested in a study using 4 independent groups. Each group received either oral vehicle or 1 of the 3 doses of compound of Example 5 (5, 10 or 30 mg-eq/kg). […] The 5 mg/kg dose was ineffective.

[2] = test system: male Sprague Dawley (SD) rats; assay: Rat cocaine cue reinstatement; details: for inhibition of cocaine cue reinstatement vs vehicle: 1 hr before session
Method: Training of male Sprague Dawley (SD) rats had 3 separate stages. First, during self administration, animals were trained to lever press for cocaine with presentation of concomitant cues associated with drug delivery. Rats that reached criteria for addiction were included in the study. Afterward, during cue extinction, cocaine-cue dependent behavior was extinguished. Lastly, during cocaine cue reinstatement, the effect of compounds was tested on lever presses upon cue presentation (FIG. 2).
Rats were trained to self administer i.v. cocaine (0.35 mg/kg/injection) daily (Monday to Friday) in standard operant chambers with retractable levers (Coulbourn Instruments, PA). During the daily 2 hr session, rats received a 0.05 ml infusion of 0.35 mg/kg cocaine every time the active lever was pressed. A cue light and tone turned on for 2 sec together with activation of a pump that delivered the cocaine solution. Rats were required to maintain an infusion rate of ≥20+ per day for at least 10 days before being moved to extinction training.
During extinction sessions lever presses no longer produced cocaine infusion and cue light/tone presentation was absent. Rats received a maximum of 15 extinction sessions.
On the next day after reaching extinction criteria, rats were treated orally with vehicle (Formulation 2B: 25% PEG400/5% Vit E TPGS/1% SLS/69% water with 0.5% Methocel) or drug (compound of Example 2 or compound of Example 5) before the cue reinstatement session. Cue reinstatement began with a tone and cue light. This 2 hr session was identical to the self-administration session (cue light and tone present upon active lever press) except that no cocaine was delivered. The number of active lever presses was compared to extinction lever responding. This is considered a measure of reinstatement. The next day, rats were returned to extinction sessions for at least 2 or 3 more sessions. Rats then received a second and last reinstatement session with an opposite treatment to the one received on the first reinstatement session (vehicle or drug treatment). […] The light/tone presentation triggers this response and it is interpreted as a measure of reinstatement even though cocaine is not available.

Male SD rats [3] = assay: Rat nicotine self administration, 7-day chronic treatment; details: 7 consecutive days
Method: Upon completion of the acute compound of Example 5 treatment study, the same animals were used to test the effect of 7-day chronic oral administration of compound of Example 5 in the nicotine self administration model. Rats were treated orally with compound of Example 5 (5, 10 or 30 mg-eq/kg) or vehicle 1 hr before nicotine self administration session for 7 consecutive days. […] Similar to the acute treatment, the 5 mg-eq/kg dose was ineffective (FIG. 7). […] Animals in nicotine self administration studies had to reach pre defined criteria (e.g. rat strain, minimum number of nicotine infusions, consistent baseline nicotine self administration throughout the study, patent iv catheters, etc.) to be included in analysis.

Q: How did the “effect on number of nicotine infusions” value (Male SD rats [1]; 1 mg/kg oral) turn out when O=C(NCc1ccc(-c2cc[nH]c(=O)c2)cc1)c1c(Cl)cccc1Cl [Compound 2, 2,6-dichloro-N-[4-(2-oxo-1,2-dihydro-pyridin-4-yl)-benzyl]-benzamide] was run?
A: Its value is “without effect”.

Q: What about the “effect on number of nicotine infusions” value (Male SD rats [1]; 5 mg/kg oral) of the same molecule?
A: Its value is “without effect”.

Q: For O=C(NCc1ccc(-c2ccn(COP(=O)(O)O)c(=O)c2)cc1)c1c(Cl)cccc1Cl [Compound 14, phosphoric acid mono-(4-{4-[(2,6-dichloro-benzoylamino)-methyl]-phenyl}-2-oxo-2H-pyridin-1-ylmethyl) ester], which “effect on cocaine cue reinstatement” value ([2]; 2.5 mg-eq/kg oral, lowest dose tested) is on record?
A: Its value is “not significantly different from vehicle”.

Q: What about the “inhibition of cocaine cue reinstatement vs vehicle” value ([2]; 2.5 mg/kg eq oral, N.S.) of the same molecule?
A: Its value is 30%.

Q: What about the “inhibition of cocaine cue reinstatement vs vehicle” value ([2]; 5 mg-eq/kg oral) of the same molecule?
A: The value was 59%.

Q: What about the “inhibition of cocaine cue reinstatement vs vehicle” value ([2]; 10 mg-eq/kg oral) of the same molecule?
A: The value was 55%.

Q: And the “inhibition of cocaine cue reinstatement vs vehicle” value ([2]; 30 mg-eq/kg oral)?
A: The value was 50%.

Q: What about the “effect on number of nicotine infusions” value (Male SD rats [1]; 5 mg/kg dose oral, independent groups) of the same molecule?
A: Its value is “ineffective”.

Q: What about the “inhibition of number of nicotine infusions vs vehicle” value (from here on “inhibition of number … vs vehicle”) (Male SD rats [1]; 10 mg-eq/kg oral, independent groups) of the same molecule?
A: The value was 51%.

Q: And the “inhibition of number … vs vehicle” value (Male SD rats [1]; 30 mg-eq/kg oral, independent groups)?
A: Its value is 68%.

Q: What about the “effect on number of nicotine infusions” value (Male SD rats [3]; 5 mg-eq/kg oral) of the same molecule?
A: The value was “ineffective”.

Q: What about the “inhibition of number … vs vehicle” value (Male SD rats [3]; 10 mg-eq/kg oral) of the same molecule?
A: The value was 48%.

Q: What about the “inhibition of number … vs vehicle” value (Male SD rats [3]; 30 mg-eq/kg oral) of the same molecule?
A: Its value is 62%.
